Publication PMC2766802 (Analytical biochemistry, 2009)
Structures can show the parent of a compound that is named as a salt. Where two headings read alike, the source gives them in different places.

Columns and labels:
hERG channel = hERG channel (Homo sapiens, UniProt Q12809)
[1] = system: untransduced U-2 OS cells; test: thallium flux counter-screen in untransduced U-2 OS cells; format: cell-based, human; details: concentration response (Fig. 3A)
[2] = IC50, LOPAC 1280 library qHTS, titration series, hERG-expressing U-2 OS cells

hERG channel, sequence (Q12809 whole entry): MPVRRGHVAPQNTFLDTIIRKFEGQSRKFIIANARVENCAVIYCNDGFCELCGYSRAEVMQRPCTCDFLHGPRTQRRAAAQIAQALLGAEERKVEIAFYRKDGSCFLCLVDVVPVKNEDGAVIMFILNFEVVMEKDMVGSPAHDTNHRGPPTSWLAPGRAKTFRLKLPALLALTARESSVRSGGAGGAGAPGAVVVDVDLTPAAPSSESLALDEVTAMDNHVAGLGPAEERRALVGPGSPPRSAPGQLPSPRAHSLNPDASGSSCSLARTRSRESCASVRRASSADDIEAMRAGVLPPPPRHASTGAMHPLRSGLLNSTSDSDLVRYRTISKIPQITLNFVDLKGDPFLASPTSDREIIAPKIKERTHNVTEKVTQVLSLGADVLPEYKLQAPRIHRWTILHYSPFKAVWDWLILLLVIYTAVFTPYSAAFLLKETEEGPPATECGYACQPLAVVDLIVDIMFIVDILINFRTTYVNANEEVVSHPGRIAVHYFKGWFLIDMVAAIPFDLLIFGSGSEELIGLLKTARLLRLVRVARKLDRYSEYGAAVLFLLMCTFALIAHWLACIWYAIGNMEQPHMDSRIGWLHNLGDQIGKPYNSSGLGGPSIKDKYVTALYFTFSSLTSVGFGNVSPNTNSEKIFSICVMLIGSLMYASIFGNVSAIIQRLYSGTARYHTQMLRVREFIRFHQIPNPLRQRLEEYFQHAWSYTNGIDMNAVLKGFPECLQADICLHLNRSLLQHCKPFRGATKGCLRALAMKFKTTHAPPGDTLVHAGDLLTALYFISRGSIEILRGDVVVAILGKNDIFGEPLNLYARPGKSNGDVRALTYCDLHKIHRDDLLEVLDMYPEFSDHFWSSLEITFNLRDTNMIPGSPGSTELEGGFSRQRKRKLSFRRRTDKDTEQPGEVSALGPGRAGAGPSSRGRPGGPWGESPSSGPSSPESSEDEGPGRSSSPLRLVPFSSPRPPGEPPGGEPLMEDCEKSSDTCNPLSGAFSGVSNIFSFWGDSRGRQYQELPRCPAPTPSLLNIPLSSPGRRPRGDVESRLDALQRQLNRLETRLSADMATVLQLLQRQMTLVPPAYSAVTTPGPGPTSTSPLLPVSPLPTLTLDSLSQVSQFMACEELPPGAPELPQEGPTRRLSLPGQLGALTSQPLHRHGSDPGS

## CCNC(=O)N1CCN(CCCC(c2ccc(F)cc2)c2ccc(F)cc2)CC1 [Amperozide hydrochloride]
hERG channel; [2]
  IC50: 60 nM

## CCCCN1[C@@H]2CC[C@H]1CC(OC(c1ccc(F)cc1)c1ccc(F)cc1)C2 (some centres unmarked) [JHW 007 hydrochloride]
hERG channel; LOPAC 1280 library qHTS, titration series, hERG-expressing U-2 OS cells
  IC50: 90 nM

## Cc1nc2sccn2c(=O)c1CCN1CCC(=C(c2ccc(F)cc2)c2ccc(F)cc2)CC1 [Ritanserin]
hERG channel; [2]
  IC50: 70 nM

## CCOC(=O)C1=C[C@]2(CC)CCCN3CCc4c(n1c1ccccc41)[C@@H]32 [Vinpocetine]
hERG channel
  IC50: 140 nM

## O=C(CCCN1CCC(O)(c2ccc(Cl)cc2)CC1)c1ccc(F)cc1 [haloperidol]
[1]
  effect on untransduced cells: no effect
